{"source": "patent US20120115896A1", "about": "“ISOGENIC HUMAN CELL LINES COMPRISING MUTATED CANCER ALLELES AND PROCESS USING THE CELL LINES” (priority 2008, published 2012)", "format_in_all_cases": "cell-based, human", "key": {"[1]": {"test_system": "hTERT-HME1 WT, PIK3CA E545K and H1047R KI cells", "assay": "CFSE time-course of cell divisions by flow cytometry", "conditions": "everolimus 500 nM, 7 days", "experimental": "(A) CFSE-labelled cells were analyzed by flow cytometry at the indicated time-points (top panels). The maximum fluorescence intensity for all samples was recorded at day 0 (depicted in filled black). […] (B) Cells of the indicated genotype were incubated with everolimus 500 nM for 48 h, after which cell cycle was analyzed by flow cytometry. No increase of the subG1 apoptotic fraction of cells was observed upon treatment. Representative data from 3 independent experiments are shown.\nFor time-course experiments, on the initial day hTERT-HME1 cells were labelled with 3 μM CFSE (5-(and -6)-carboxyfluorescein diacetate, succinimidyl ester, Invitrogen C1157, Milan, Italy) in PBS in the dark for 30 minutes. After washing and recording baseline fluorescence, cells were plated in media containing 1% FBS and 2 ng/mL EGF, and treatment with everolimus was initiated, replenishing the drug on a daily basis. For cell cycle analysis, trypsinized cells were washed with PBS and cell nuclei DNA were stained with propidium iodide (PI) for at least 120 minutes using a commercial kit (DNA con 3, Consul T.S., Orbassano, Italy).\nAll fluorescence levels were detected by flow cytometry on a FACSCalibur (Becton Dickinson, Milan, Italy) and analyzed using CellQuest software. The number of events collected for each sample varied between 15,000 and 50,000. After doublets exclusion, an extended analysis of the DNA content and calculations of the percentage of cells in each phase of the cell cycle were performed on ModFit Lt software (Verity Software House, Topsham, Me.)."}, "[2]": {"test_system": "phosphorylation of p70S6K, RpS6, AKT and MAPK in HCT 116 and KRAS WT/- HKe-3 cells", "assay": "Biochemical effects of everolimus: immunoblot and ELISA of phospho-proteins", "conditions": "everolimus 500 nM, 30 minutes", "experimental": "(A, D) After 30 minutes'treatment with everolimus 500 nM, HCT 116 parental cells and its derivative KRAS WT/-HKe-3 clone were lysed and immunoblotted with the anti-phospho-P70S6K, totalP70S6K, phospho-MAPK and total MAPK (B, C, E) The same lysates were used also for ELISA measurements of total AKT, phosphoAKT (Thr308), phosphoAKT (Ser473), total RpS6 and phosphoRpS6 levels. Numbers indicate the ratio of phosphorylated protein related to total protein levels and are normalized respect to the untreated (NT) HCT 116 cells.\n(§1) SDS PAGE was performed using Invitrogen Precasted gels (Invitrogen Carlsbad, Calif.); western blotting transfer onto Hybond-C Extra membranes (Amersham, Amersham Biosciences, Uppsala, Sweden) was done following standard methods. The primary antibodies used for immunoblotting were: Anti-AKT (Cell Signaling, Technology, Danvers, Mass.); Anti-phospho-AKT S473 (Cell Signaling, Technology, Danvers, Mass.); Anti-Actin and Anti-Vinculin (Sigma-Aldrich, St. Louis, Mo.); Phospho-p44/42 Map kinase (Thr202/Tyr204) (Cell Signaling, Technology, Danvers, Mass.); Anti-phospho-EGFR Receptor (Tyr 1068) and Anti EGFR Receptor (Cell Signaling Technology, Danvers, Mass.)."}, "[3]": {"test_system": "phosphorylation of p70S6K, RpS6, AKT and MAPK in hTERT-HME1 WT and KI cells", "assay": "Biochemical effects of everolimus: immunoblot and ELISA of phospho-proteins", "conditions": "for levels of phospho-MAPK: FIG. 16E", "experimental": "(A, E) After 30 minutes' treatment with everolimus 500 nM, cells of the indicated genotype were lysed and immunoblotted with the anti-phospho-P70S6K, totalP70S6K, phospho-MAPK and total MAPK antibodies (B, C, D) The same lysates were also used for ELISA measurements of total AKT, phosphoAKT (Thr308), phosphoAKT (Ser473), total RpS6 and phosphoRpS6 levels. Numbers indicate the ratio of phosphorylated protein related to total protein levels and are normalized respect to the untreated (NT) hTERT-HME1 WT cells. DKI, Double Knock-In cells carrying both PIK3CA H1047R and KRAS G13D alleles.\nas §1"}}}
{"smiles": "CO[C@H]1C[C@@H]2CC[C@@H](C)[C@@](O)(O2)C(=O)C(=O)N2CCCC[C@H]2C(=O)O[C@H]([C@H](C)C[C@@H]2CC[C@@H](OCCO)[C@H](OC)C2)CC(=O)[C@H](C)/C=C(\\C)[C@@H](O)[C@@H](OC)C(=O)[C@H](C)C[C@H](C)/C=C/C=C/C=C/1C", "note": "[everolimus, Everolimus]", "values": [{"measurement": "slowing of cell growth (CFSE)", "setting": "[1]; PIK3CA E545K", "result": "less pronounced"}, {"measurement": "slowing of cell growth (CFSE)", "setting": "[1]; PIK3CA H1047R", "result": "particularly evident"}, {"measurement": "slowing of cell growth (CFSE)", "setting": "[1]; WT cells", "result": "only minimal"}, {"measurement": "MAPK phosphorylation in drug treated HKe-3 cells compared to parental", "setting": "[2]; FIG. 15A", "result": "higher level of MAPK phosphorylation"}, {"measurement": "levels of activated RpS6", "setting": "[2]; FIG. 15E", "result": "decreased accordingly"}, {"measurement": "phosphorylation of p70S6K", "setting": "[2]; parental and KRAS D13 deleted cells, FIG. 15D", "result": "abrogated"}, {"measurement": "levels of phospho-MAPK", "setting": "[3]; KRAS G13D mutated cells", "result": "decreased"}, {"measurement": "levels of phospho-MAPK", "setting": "[3]; WT cells and PIK3CA H1047R mutated cells", "result": "essentially unchanged"}, {"measurement": "phospho-AKT", "setting": "[3]; all genotypes, everolimus 500 nM, 30 minutes, FIG. 16C, D", "result": "increase"}, {"measurement": "p70S6K phosphorylation", "setting": "[3]; everolimus 500 nM, 30 minutes, FIG. 16A", "result": "abrogated"}, {"measurement": "activated phospho-RpS6 levels", "setting": "[3]; everolimus 500 nM, 30 minutes, FIG. 16B", "result": "decrease"}]}
